Test system: SSTR2 mutants
Assay: SSTRs Gi-mediated cAMP inhibition, GloSensor, HEK293, 5 μM forskolin, 15 min room temperature (SSTR2 mutants)
Assay type: cell-based, human
Protocol: The levels of the intracellular 3′, 5′-cyclic AMP (cAMP) were measured by the GloSensor cAMP assay (Promega) as described in the previous studies[28],[41] which has been widely used. The human full-length SSTRs and mutants were cloned into the pcDNA3.1+ vector with a HA signal sequence followed by a Flag tag at the N-terminus. HEK293 cells (ATCC, CRL-1573) were seeded into 6-well microplates at a density of 1.0 × 10^6 cells/well and cultured for 24 h at 37 °C with 5% CO2. Cells were then co-transfected with SSTR wild-type or mutants and GloSensor plasmids. After 24 h of transfection, the cells were dissociated with TrypLE™ Express Enzyme (1X) (Thermo Fisher Scientific) and collected by centrifugation at 500 × g for 5 min. Then the collected cells were suspended in Hank’s balanced salt solution [HBSS (Thermo Fisher Scientific)] supplemented with […] (YEASEN), and then the suspension cells were seeded into 96-well plates with 90 μl/well. After incubating at room temperature for 40 min, 5 μM forskolin and ligands diluted in HBSS were added to each well and the plates were incubated at room temperature for 15 min. […] were measured using the Synergy H1 microplate reader (BioTek) and the data presented are means of at least three independent experiments.

[1] = Suppl. Table 4, SSTR2 D295(7.36)F, n=3
[2] = Suppl. Table 4, SSTR2 F294(7.35)Y, n=3
[3] = Suppl. Table 4, SSTR2 I195(45.52)M, n=3
[4] = Suppl. Tables 4/5, SSTR2 V103(2.64)N, n=3

## N#Cc1cccc(-c2ccc3ncc(-c4cc(F)cc(F)c4)c(N4CCC(N)CC4)c3c2)c1O [paltusotine]
P220A-2 (run 2)
  Span (best-fit value): 119.1
  Top (best-fit value): 123.6
P220A-3 (run 3)
  Bottom (best-fit value): 2.569
  LogEC50 (best-fit value): -8.511
  Span (best-fit value): 103.4
  Top (best-fit value): 106
Suppl. Table 4, SSTR2 D295(7.36)F
  Fold of WT: 0.67
[1]
  EC50: 1.39 ± 1.95 nM
  Emax: 75.57±7.43 %WT SSTR2
Suppl. Table 4, SSTR2 F294(7.35)Y
  Fold of WT: 0.48
[2]
  EC50: 0.99 ± 1.3 nM
  Emax: 103.10±3.86 %WT SSTR2
Suppl. Table 4, SSTR2 I195(45.52)M
  Fold of WT: 1.47
[3]
  EC50: 3.05 ± 1.57 nM
  Emax: 89.43±6.05 %WT SSTR2
Suppl. Table 4, SSTR2 Y205(5.35)R
  Fold of WT: 0.16
Suppl. Table 4, SSTR2 Y205(5.35)R, n=3
  EC50: 0.34 nM
Suppl. Tables 4/5, SSTR2 T194(45.51)H
  Fold of WT: 72.45
Suppl. Tables 4/5, SSTR2 T194(45.51)H, n=3
  Emax: 103.80±12.72 %WT SSTR2
Suppl. Tables 4/5, SSTR2 V103(2.64)N
  Fold of WT: 5.75
[4]
  EC50: 12 ± 1.33 nM
  Emax: 99.52±4.73 %WT SSTR2
T194(45.51)H in SSTR2
  Receptor activation of mutant: significantly reduced receptor activation
T194A, run 1, best-fit
  EC50: 54.2 nM
  LogEC50: -7.266
T194A, run 2, best-fit
  EC50: 52.7 nM
  LogEC50: -7.278
T194A, run 3, best-fit
  EC50: 125 nM
  LogEC50: -6.904
T194H, run 1
  Bottom (best-fit): 6.584
  EC50: 123 nM
  LogEC50: -6.909
  Span (best-fit): 95.8
  Top (best-fit): 102.4
T194H, run 2
  Bottom (best-fit): -1.67
  EC50: 151 nM
  LogEC50: -6.822
  Span (best-fit): 105.4
  Top (best-fit): 103.8
T194H, run 3
  Bottom (best-fit): -5.336
  EC50: 125 nM
  LogEC50: -6.902
  Span (best-fit): 128.8
  Top (best-fit): 123.4
V103(2.64)A
  Impact on Gi signaling: less impact on Gi signaling
V103(2.64)N in SSTR2
  Receptor activation of mutant: reduced receptor activation induced by paltusotine
V103N, run 1
  Bottom (best-fit): 8.462
  EC50: 11.7 nM
  LogEC50: -7.932
  Span (best-fit): 90.96
  Top (best-fit): 99.42
V103N, run 2
  Bottom (best-fit): -2.517
  EC50: 36.2 nM
  LogEC50: -7.441
  Span (best-fit): 109.6
  Top (best-fit): 107.1
V103N, run 3
  Bottom (best-fit): -1.625
  EC50: 11.7 nM
  LogEC50: -7.93
  Span (best-fit): 109.5
  Top (best-fit): 107.8
W269A-1 (run 1)
  Bottom (best-fit value): -6.112
  LogEC50 (best-fit value): -9.221
  Span (best-fit value): 105.6
  Top (best-fit value): 99.48
W269A-2 (run 2)
  Bottom (best-fit value): -8.179
  LogEC50 (best-fit value): -9.298
  Span (best-fit value): 111.2
  Top (best-fit value): 103
W269A-3 (run 3)
  Bottom (best-fit value): -4.689
  LogEC50 (best-fit value): -9.219
  Span (best-fit value): 124.8
  Top (best-fit value): 120.1
Y50A, run 1, best-fit
  EC50: 3.61 nM
  LogEC50: -8.443
Y50A, run 2, best-fit
  EC50: 3.74 nM
  LogEC50: -8.427
Y50A, run 3, best-fit
  EC50: 3.4 nM
  LogEC50: -8.469
Y205A-1 (run 1)
  Bottom (best-fit value): 11.16
  LogEC50 (best-fit value): -9.464
  Span (best-fit value): 82.7
  Top (best-fit value): 93.87
Y205A-2 (run 2)
  Bottom (best-fit value): -6.723
  LogEC50 (best-fit value): -9.038
  Span (best-fit value): 105.5
  Top (best-fit value): 98.77
Y205A-3 (run 3)
  Bottom (best-fit value): 0.8743
  LogEC50 (best-fit value): -9.745
  Span (best-fit value): 102.6
  Top (best-fit value): 103.5
Y205R, run 1
  LogEC50: -9.464
  Span (best-fit): 104.7
  Top (best-fit): 106.2
Y205R, run 2
  LogEC50: -9.626
  Span (best-fit): 101.5
  Top (best-fit): 105.3
Y205R, run 3
  LogEC50: -8.061
  Span (best-fit): 97.31
  Top (best-fit): 99.13
Y302A-1 (run 1)
  Bottom (best-fit value), cAMP inhibition: 5.692

From PMC9944328 (Nature Communications, 2023)
